Measurements as given in patent US11718585B2, “Bis-cyclic guanidines as antibacterial agents” (University of South Florida, priority 2017, dated 2023).

Key:
[1] = test system: six bacteria strains; assay: MIC, summary statements over the panel of tested bacteria; format: cell-based
Protocol: (§1) Minimum Inhibitory Concentrations (MICs) against Bacteria. The antimicrobial activity of the compounds was tested on the following six bacteria strains: K. pneumoniae (ATCC 13383), P. aeruginosa (ATCC27853), E. coli (ATCC 25922), vancomycin-resistant Enterococcus faecalis (ATCC 700802), Methicillin-resistant S. aureus (MRSA, ATCC 33591), Methicillin-resistant S. epidermidis (MRSE, RP62A). The procedures were followed as reported previously (Hancock et al., Immunobiology 2006, 211, 315-322). Briefly, a single colony of each bacterium was inoculated in 3 mL TSB medium and incubated overnight at 37° C. Then the bacteria culture was diluted at 1:100 and the bacteria were allowed to grow to mid-logarithmic phase. Next, 50 μL of 2-fold serial dilutions of compounds (0.1-25 μg/mL) were added the 96-well plate containing aliquots of 50 μL of bacteria suspension (1×10^6 CFU/mL) in each well. The mixture was incubated at 37° C. for 16 h, and their absorption at 600 nm wavelength was read on a Biotek Synergy HT microtiter plate reader. […] The experiments were repeated at least three times with duplicates each time. HC50 means the concentration causing 50% hemolysis.

[2] = test system: E. coli; assay: Time-kill study; format: cell-based; details: for time to completely remove/kill all bacteria: 12.5 μg/mL
Protocol: The killing activity was monitored for the first 2 h. The concentrations for compound 11 were 2×MIC, 4×MIC, and 8×MIC, respectively.
Time-kill studies were conducted to investigate the bacterial killing kinetics of compounds 11 and 12 by using E. Coli. Briefly, the bacteria […] grew to mid-logarithmic phase in TSB medium, from which the suspension (10^6 CFU/ml) was made. The suspension was incubated with different concentrations of 11 or 12 for 10 min, 30 min, 1 h and 2 h respectively. The mixtures were diluted by 10^2 to 10^4 fold and spread on TSB agar plates. After incubation at 37° C. overnight, the colonies on the plates were counted and plotted against the incubation time. […] Cell colonies were counted in agar plates at 12.5, 25, and 50 μg/mL. Compound 11 at the concentration of 12.5 or 25 μg/mL completely removed all bacteria in 2 hours, and at 50 μg/mL it completely removed bacteria in 0.5 hour. Compound 12 killed E. Coli completely in 0.5 hour at the concentration of 12.5 μg/mL.

[3] = test system: S. aureus; assay: Fluorescence microscopy (DAPI/PI) of bacterial membranes, S. aureus; format: cell-based; details: 10 μg/mL, 2 h
Protocol: (§2) Fluorescence microscopy studies were conducted to evaluate the ability of compound 12 to compromise membranes of S. aureus (Gram-positive bacterium) and E. coli (Gram-negative bacterium). Fluorescent agent 4′,6-diamidino-2-phenylindole (DAPI) was used to stain membranes of bacterial cells with blue fluorescence regardless of cell viability, and the red fluorescence of propidium iodide (PI) due to the DNA intercalation was used to stain impaired membranes. After MRSA and E. Coli grew to mid-logarithmic phase, the compound 12 was incubated with the bacteria at 37° C. for 2 h. The mixture was then centrifuged at 5000 rpm for 15 min. The cell pellets were washed with the PBS buffer for three times, and incubated with PI (5 μg/mL) and DAPI (10 μg/mL) for 15 min sequentially on ice in the dark. The mixture was then centrifuged and the pellets were washed with the PBS buffer. Next, 10 μL of the samples were placed on chamber slides and observed under Zeiss Axio Image Zloptical microscope using 100× oil-immersion objective.

[4] = test system: E. coli; assay: Fluorescence microscopy (DAPI/PI) of bacterial membranes, E. coli; format: cell-based; details: 10 μg/mL, 2 h
Protocol: as §2

[5] = test system: MRSA; assay: Drug-resistance study, 14 passages, MRSA; format: cell-based, S. aureus; details: incubated at ½ MIC every day
Protocol: (§3) Bacterial resistance tests were conducted using compound 12. The compound was incubated with either MRSA or E. Coli in the well at the concentration of half-MIC (½ MIC, 10^6 CFU/ml) every day and tested for their activity through 14 successive passages.

[6] = test system: E. coli; assay: Drug-resistance study, 14 passages, E. coli; format: cell-based; details: incubated at ½ MIC every day
Protocol: as §3

[7] = test system: E. coli (ATCC 25922); assay: Minimum inhibitory concentration (MIC) against E. coli; format: cell-based; details: Escherichia coli, ATCC25922; Gram −; 16 h, 37° C.
Protocol: as §1

[8] = test system: P. aeruginosa (ATCC27853); assay: MIC against P. aeruginosa; format: cell-based
Protocol: as §1

[9] = test system: K. pneumoniae (ATCC 13383); assay: MIC against K. pneumoniae; format: cell-based; details: Klebsiella pneumoniae, ATCC13383; Gram −; 16 h, 37° C.
Protocol: as §1

[10] = test system: Methicillin-resistant S. aureus (MRSA, ATCC 33591); assay: MIC against MRSA; format: cell-based; details: Staphylococcus aureus; Gram +; 16 h, 37° C.
Protocol: as §1

[11] = test system: Methicillin-resistant S. epidermidis (MRSE, RP62A); assay: MIC against MRSE; format: cell-based; details: Staphylococcus epidermidis, Gram +, 16 h, 37° C.
Protocol: as §1

[12] = test system: vancomycin-resistant Enterococcus faecalis (ATCC 700802); assay: MIC against VRE; format: cell-based; details: Gram +; 16 h, 37° C.
Protocol: as §1

[13] = test system: human red blood cells (hRBCs); assay: Hemolytic assay; format: cell-based; details: concentration causing 50% hemolysis, 37° C., 1 h
Protocol: Hemolytic assays. The freshly drawn, K2EDTA treated human red blood cells (hRBCs) were washed with 1×PBS buffer, and centrifuged at 3500 rpm for 10 min. The step was repeated until the supernatant became clear. The supernatant was removed, and the RBCs were diluted into 5% v/v suspension. 50 μL of the suspension was incubated with 50 μL of compounds of different concentrations at 37° C. for 1 h. The mixture was centrifuged at 3500 rpm for 10 min. Subsequently, to 30 μL of the supernatant 100 μL PBS was added, and the absorbance of the mixture at 540 nm was read on a Biotek Synergy HT plate reader. The positive control was 2% Triton X-100, and the negative control was 1×PBS alone. The hemolysis activity was calculated by the formula % hemolysis=(Abssample−AbsPBS)/(AbsTriton−AbsPBS)×100%. The experiment was repeated at least three times with duplicates each time.

`N#CNc1cccc(NC(=O)CN2C[C@H](Cc3ccccc3)N(CCCc3ccccc3)C2=N)c1` [Compound 7] was tested, and the “antibacterial activity against the tested bacteria (in words)” value (shortened to “antibacterial activity”) [1] was “negligible activity”.
For `N=C1N(CC(=O)Nc2cccc(NC(N)=O)c2)C[C@H](Cc2ccccc2)N1CCCc1ccccc1` [Compound 8], the “antibacterial activity” value [1] was “negligible activity”.
In the case of `CCCCCCN1C(=N)N(CC(=O)Nc2ccc(NC(=O)CN3C[C@H](Cc4ccccc4)N(CCCCCC)C3=N)cc2)C[C@@H]1Cc1ccccc1` [Compound 11], the “time to completely remove/kill all bacteria” value [2] is reported as 2 h, the “time to completely remove bacteria” value ([2]; 50 μg/mL) is reported as 0.5 h and the “antibacterial activity” value [1] is reported as “potent and broad-spectrum activity”.
For `CCCCCCN1C(=N)N(CC(=O)Nc2cccc(NC(=O)CN3C[C@H](Cc4ccccc4)N(CCCCCC)C3=N)c2)C[C@@H]1Cc1ccccc1` [Compound 12], the “membrane disruption (red fluorescence under the PI channel)” value [3] was “membranes of these bacteria were disrupted”, the “membrane disruption (red fluorescence under the PI channel)” value [4] was “membranes of these bacteria were disrupted” and the “time to completely remove/kill all bacteria” value [2] was 0.5 h. The “MIC after 14 passages” value [5] was “virtually constant”, the “MIC after 14 passages” value [6] was “virtually constant” and the “antibacterial activity” value [1] was “potent and broad-spectrum activity”.
In the case of `CCCCCCN1C(=N)N(CC(=O)NCCCCNC(=O)CN2C[C@H](Cc3ccccc3)N(CCCCCC)C2=N)C[C@@H]1Cc1ccccc1` [Compound 13], the MIC [7] is reported as 0.75 to 1.5 µg/mL and the “activity against P. aeruginosa (in words)” value [8] is reported as “reduced activity”.
For `CCCCCCN1C(=N)N(CC(=O)NCCCCCCNC(=O)CN2C[C@H](Cc3ccccc3)N(CCCCCC)C2=N)C[C@@H]1Cc1ccccc1` [Compound 14], the “activity against P. aeruginosa (in words)” value [8] was “reduced activity”.
For `CCCCCCN1C(=N)N(CC(=O)NCCCCCCCCNC(=O)CN2C[C@H](Cc3ccccc3)N(CCCCCC)C2=N)C[C@@H]1Cc1ccccc1` [Compound 15], the “activity against P. aeruginosa (in words)” value [8] was “reduced activity”.
For `CCCCCCN1C(=N)N(CC(=O)NCCCOCCOCCOCCCNC(=O)CN2C[C@H](Cc3ccccc3)N(CCCCCC)C2=N)C[C@@H]1Cc1ccccc1` [Compound 16], the MIC [7] was 1.5 to 3 µg/mL, the MIC ([8]; Pseudomonas aeruginosa, ATCC27853, Gram −, 16 h, 37° C.) was greater than 25 µg/mL and the MIC [9] was greater than 25 µg/mL. The MIC [10] was 0.75 µg/mL, the MIC [11] was 1.5 µg/mL and the MIC [12] was 6 to 12 µg/mL. For the same compound, the “Hemolysis (HC50)” value [13] was 200 µg/mL and the “antibacterial activity” value [1] was “reduced activity”.
With `CCCCCCCCN1C(=N)N(CC(=O)Nc2ccc(NC(=O)CN3C[C@H](Cc4ccccc4)N(CCCCCCCC)C3=N)cc2)C[C@@H]1Cc1ccccc1` [Compound 17] the “antibacterial activity” value [1] was “decreased activity”.
In the case of `CCCCCCCCN1C(=N)N(CC(=O)Nc2cccc(NC(=O)CN3C[C@H](Cc4ccccc4)N(CCCCCCCC)C3=N)c2)C[C@@H]1Cc1ccccc1` [Compound 18], the “antibacterial activity” value [1] is reported as “decreased activity”.
`CCCCCCN1C(=N)N(CC(=O)Nc2cccc(NC(=O)CN3C[C@H](CC(C)C)N(CCCCCC)C3=N)c2)C[C@@H]1CC(C)C` [Compound 23] was tested, and the MIC [10] was 0.75 to 1.5 µg/mL and the “antibacterial activity” value [1] was “slightly less effective”.
